Assay results: patent publication US12691112B2, “FGFR tyrosine kinase inhibitors for the treatment of urothelial carcinoma” (Janssen Pharmaceutica NV, priority 2019, dated 2026)
Several values for one entry are separate records, joined by “and”; a condition that tells them apart may be missing. Equal values may be shown once.

Experiments:
[1] = system: metastatic or surgically unresectable urothelial cancer harboring select FGFR genetic alterations; assay: Phase 2 study NCT02365597: tumor response per independent radiographic review committee (BIRC); type: in vivo, human
Method: Patients were contacted every 12 weeks for survival assessment.
The study was designed to enroll 180 patients with specified FGFR alterations. Of these, ≥88 were required in the selected regimen. […] Responses were assessed by investigators and an independent radiological review committee. Progression-free survival and overall survival were estimated using Kaplan-Meier product limit method. Data from patients who were progression free and alive or with unknown status were censored at last tumor assessment. Efficacy end points were analysed at primary analysis cut-off.

[2] = Excretion after single oral dose of radiolabeled erdafitinib; type: in vivo
[3] = Regimen 3, 8 mg continuous (n=99)
[4] = Regimen 3, chemotherapy-refractory patients, N = 87

## COc1cc(OC)cc(N(CCNC(C)C)c2ccc3ncc(-c4cnn(C)c4)nc3c2)c1 [erdafitinib, N-(3,5-dimethoxy-phenyl)-N′-(1-methylethyl)-N-[3-(1-methyl-1H-pyrazol-4-yl)quinoxalin-6-yl]ethane-1,2-diamine]
[1]; [3]
  Complete response rate per independent radiographic review committee: 3 (3.0) %
  Objective response rate per independent radiographic review committee: 34.3% and 34 (34.3) %
  Partial response per independent radiographic review committee: 31 (31.3) %
[1]; [4]
  Complete response (CR), BIRC assessment: 2.3%
  Median DoR (95% CI), BIRC assessment: 5.4 (4.2, 6.9) months
  ORR (95% CI), BIRC assessment: 32.2% and 32.2 (22.4, 42.0) %
  Partial response (PR), BIRC assessment: 29.9%
[1]; Regimen 3, chemotherapy-refractory, FGFR3 fusion, N = 18
  ORR (95% CI), BIRC assessment: 11.1 (0, 25.6) %
[2]
  dose recovered in feces: approximately 69%
  dose recovered in feces as unchanged: 19%
  dose recovered in urine: 19%
  dose recovered in urine as unchanged: 13%
